This note sets out measurements from patent publication US20030138864A1, “Method for identifying an enzyme to design anti-cancer compounds” (priority 2001, published 2003).

Where a name gives a salt, the structure may show the parent alone. Read-outs that look alike come from different tables or passages of the source.

Series [1] concerns HCT116/S5: HCT116 transfected with the human microsomal dipeptidase cDNA. The series is described as follows: Growth inhibition (cytotoxicity, WST-8) of HCT116/S5 cells expressing a high level of microsomal dipeptidase. It is filed as cell-based. The note with it: for Growth inhibition compared among HCT116, HCT116/S5 and granulocyte progenitor cells: HCT116/S5 (high microsomal dipeptidase) versus HCT116 and granulocyte progenitor cells (very little activity); for IC50: drug exposure time, read-out: Cytotoxicity (IC50 in nM) HCT116/S5. As to the method: (§1) The activation of the compounds is mediated by microsomal dipeptidase. The inhibitory activities of the compounds is determined against growth of the cells expressing a low level of microsomal dipeptidase, those expressing a high level of microsomal dipeptidase, and granulocyte progenitors that are expanded ex vivo. The human colon cancer cell line, HCT116 (American Type Culture Collection No. CCL-247), and granulocyte progenitors are used as the cells expressing only a low level of microsomal dipeptidase. A stable transfectant, HCT116/S5, into which the human microsomal dipeptidase cDNA (herafter called MDP) connected to the CMV promoter was transfected, is used as the cells expressing a high level of microsomal dipeptidase. The dipeptidase cDNA (Satoh et al. Biotechnol. Prog. 10 (2), 134-140 (1994)) and other references) and the cloning procedures as mentioned are known in the art. HCT116, HCT116/S5, and granulocyte porogenitors are cultured in the absence and presence of the drugs. […] The IC50 values are determined and compared among HCT116, HCT116/S5, and granulocyte porogenitors. Although time duration of the exposure of the cells to the drugs varies depending on the cells and drugs, it can be 24 hr, 96 or 168 hr.
Transfection of the DNA was carried out by using TransIT-LT2 (PanVera, Madison, USA, Calatog No. MIR2320) according to the manufacturer's instruction. The resulting transfectants were cultivated in MaCoy5A medium (Sigma, St Louis, USA, Catalog No. M8403) supplemented with 10% (v/v) fetal bovine serum and 1 mg/ml of geneticin disulfate (Wako, Osaka, Japan, Catalog No. 535-24624). The cells that grew in the presence of 1 mg/ml G418 were collected and cultivated in MaCoy5A medium.
(§2) By using 96-multi well plates, approximately 2×10^3 cells per well of the HCT116 bearing pRC/CMV and HCT116S5 carrying pRC/CMV-MDP were cultured in 200 μl of McCoy5A medium supplemented with 10% FBS in the presence or absence of the indicated concentrations of the drugs at 37° C. under 5% CO2 in humidified air. The cells were exposed to drugs for 24 hr (taxol, camptothecins and their prodrugs) or 96 hr (DMDC and its compounds). When the drug exposure time to the cells was 24 hr, culture medium containing drugs were removed, and the cells were washed and suspended in the fresh medium without drugs and further cultured at 37° C. under 5% CO2 in humidified air for the indicated days. Then, 10 μl of WST-8 (Cell Counting Kit-8, Wako, Osaka, Japan, Catalog No.343-07623) were added to the cultures, and the cells were further incubated at 37° C. for 1 or 2 hr. Cell growth inhibition was calculated as IC50 values according to optical densities at 450 nm and at 655 nm. To examine the effects of drugs on granulocyte progenitors, the granulocyte progenitors, which were expanded on a monolayer of MS-5 for 7 days, were collected and washed with RPMI1640 medium. Approximately 5000 cells were suspended in 200 μl of RPMI medium supplemented with 10% FBS and 50 ng/ml of G-CSF in the presence or absence of drugs and cultured in the presence of drugs for 24 hr (taxol, camptothecins and their prodrugs) or 7 days (DMDC and its prodrug) at 37° C. under 5% CO2 in humidified air. When the exposure time of drugs to the cells was 24 hr, the drugs were removed at 24 hr after addition of drugs by washing the cells with the above medium, and the cells were further cultured for 6 days in the same medium without drugs. Therafter, 20 μl of WST-1 (Roche Diagnostics, Mannheim, Germany, Catalog No. 1644807) were added to the cultures, and the cells were further incubated at 37° C. for 6 hr. Cell growth inhibition was calculated as IC50 values according to optical densities at 450 nm and at 655 nm.
Background: Tetrazolium dyes change colour on reduction, which living cells bring about.

Series [2] in a line: Growth inhibition (cytotoxicity, WST-1) of granulocyte progenitors expanded ex vivo (CFU-GM). In kind it is cell-based, human. The note with it: human, drug exposure time; for IC50 at 24 h: then cultured for 6 days without drugs. As to the method:
as §1
(§3) CD34-positive mononuclear cells derived from the human umbilical cord blood and bone marrow (Veritas Co, Tokyo, Japan, Catalog No.CB009F, ABM019F) were cultured on a confluent monolayer of MS5 (Itoh, K., et al. Reproducible establishment of hematopoietic supportive stromal cells from murine bone marrow. Exp. Hematol. 17, 145-153 (1989)). Mouse stromal cell lines in alpha MEM medium (Life Technologies, Gaithersburg, USA, Catalog No.12571-0063) supplemented with 10% (v/v) horse serum (HS) (Stem Cell Technologies, Vancouver, Canada, Catalog No. 06750), 10% (v/v) fetal bovine serum (FBS) (Stem Cell Technologies, Vancouver, Canada, Catalog No.06450), 50 ng/ml Flt3 ligand (PeproTec EC., London, UK., Catalog No. 300-19), 100 ng/ml SCF (PeproTech EC, London, UK., Catalog No. 300-07), and 50 ng/ml TPO (PeproTech EC, London, England, Catalog No. 300-18) at 37° C. under 5% CO2 in humidified air. Floating hematopoietic cells were collected and stained by monoclonal antibodies against PerCP-anti-CD34 (BD pharMingen, San Diego, USA, Catalog No.340430), PE-anti-CD13 (BD pharMingen, San Diego, USA, Catalog No. 30525X) and FlTC-anti-15(BD pharMingen, SanDiego, USA, Catalog No. PM30525X). Five microlitter of each antibody was added to a […] of cell suspension and incubated at 4° C. for 25 min. After washing with PBS containing 10% (v/v) FCS, the expression of CD antigens were detected by using FACSCalibur (Becton Dickinson, Franklin Lakes, N.J., USA) according to the FACSCalibur Traing mannual (FACStation ver1.1. Becton Dickinson, Franklin Lakes, N.J., USA.). […]

Series [3] has as its system HCT116: human colon cancer cell line. The series is described as follows: Growth inhibition (cytotoxicity, WST-8) of HCT116 cells expressing only a low level of microsomal dipeptidase. In kind it is cell-based. The note with it: drug exposure time, read-out: Cytotoxicity (IC50 in nM) HCT116. As to the method:
The activation of the compounds is mediated by microsomal dipeptidase. The inhibitory activities of the compounds is determined against growth of the cells expressing a low level of microsomal dipeptidase, those expressing a high level of microsomal dipeptidase, and granulocyte progenitors that are expanded ex vivo. […] A stable transfectant, HCT116/S5, into which the human microsomal dipeptidase cDNA (herafter called MDP) connected to the CMV promoter was transfected, is used as the cells expressing a high level of microsomal dipeptidase. […] HCT116, HCT116/S5, and granulocyte porogenitors are cultured in the absence and presence of the drugs. […] The IC50 values are determined and compared among HCT116, HCT116/S5, and granulocyte porogenitors.
Transfection of the DNA was carried out by using TransIT-LT2 (PanVera, Madison, USA, Calatog No. MIR2320) according to the manufacturer's instruction. […] The cells that grew in the presence of 1 mg/ml G418 were collected and cultivated in MaCoy5A medium.
as §2, with “Then, 10 μl of WST-8 (Cell Counting Kit-8, Wako, Osaka, Japan, Catalog No.343-07623) were added to the cultures, and the cells were further incubated at 37° C. for 1 or 2 hr. Cell growth inhibition was calculated as IC50 values according to optical densities at 450 nm and at 655 nm.” left out, “drugs.” for “drugs. Therafter, 20 μl of WST-1 (Roche Diagnostics, Mannheim, Germany, Catalog No. 1644807) were added to the cultures, and the cells were further incubated at 37° C. for 6 hr. Cell growth inhibition was calculated as IC50 values according to optical densities at 450 nm and at 655 nm.”

The test system of series [4] is CFU-GM: human bematopoietic progenitor cells. Put plainly: Growth inhibition (cytotoxicity, WST-1) of granulocyte progenitors expanded ex vivo (CFU-GM). In kind it is cell-based. As to the method: as §1, §3
[5] abbreviates: Homo sapiens, HCT-116, 24 hr, then drug removed and cells cultured further.
Where [6] appears, read: 24 hr, then drug removed and cells cultured further.

Consider `CC(=O)O[C@H]1C(=O)[C@@]2(C)[C@H]([C@H](OC(=O)c3ccccc3)[C@]3(O)C[C@H](OC(=O)[C@H](O)[C@@H](NC(=O)c4ccccc4)c4ccccc4)C(C)=C1C3(C)C)[C@]1(OC(C)=O)CO[C@@H]1C[C@@H]2O` (relative stereo) [Paclitaxel, [2aR-[2aα,4β,4aβ,6β,9α(αR*,βS*),11α,12α,12aα,12bα]]-β-(benzoylamino)-α-hydroxybenzenepropanoic acid 6,12b-bis(acetyloxy)-12-(benzoyloxy)-2a,3,4,4a,5,6,9,10,11,12,12a,12b-dodecahydro-4,11-dihydroxy-4a,8,13,13-tetramethyl-5-oxo-7,11-methano-1H-cyclodeca[3,4]benz[1,2-b]oxet-9-yl ester, reference compound], for which, in series [1], the “Growth inhibition compared among HCT116, HCT116/S5 and granulocyte progenitor cells” value (from here on “Growth inhibition compared among HCT116”) is recorded as “not significantly different”. This compound also displayed an IC50 at 24 h in series [2] of 16 nM. Besides, the IC50 in series [3] (setting [5]) came out at 2.5 nM.
Take `C=C1[C@H](n2ccc(N)nc2=O)O[C@H](CO)[C@H]1O` [DMDC, 2′-deoxy-2′-methylidenecytidine, reference compound]: in series [1], the “Growth inhibition compared among HCT116” value is reported as “not significantly different”. The IC50 in series [1] (Homo sapiens, HCT-116, 96 hr) is 0.3 nM; in series [3] (Homo sapiens, HCT-116, 96 hr), 0.2 nM. In series [2] (168 hr (7 days)), this compound gave an IC50 at 168 h of 0.07 nM.
Consider `CC[C@@]1(O)C(=O)OCc2c1cc1n(c2=O)Cc2cc3ccccc3nc2-1` [Camptothecin, 4(S)-ethyl-4-hydroxy-1H-pyrano[3′,4′:6,7]indolizino[1,2-b]quinoline-3,14(4H,12H)-dione, reference compound], for which the “Growth inhibition compared among HCT116” value in series [1] is listed as “not significantly different”. In addition, the IC50 amounted to 5.6 nM in series [1] (setting [5]) and 19 nM in series [3] (setting [5]). This compound registered an IC50 at 24 h in series [2] of 6.1 nM.
Regarding `CCc1c2c(nc3ccc(O)cc13)-c1cc3c(c(=O)n1C2)COC(=O)[C@@]3(CC)OC(=O)CC[C@@H](NC(=O)[C@@H](N)Cc1ccccc1)C(=O)O` [Example 39, 7-ethyl-10-hydroxy-20-O—[(S)-phenylalanyl-γ-(R)-glutamyl]-20(S)-camptothecin hydrochloride], the figures for the IC50 in series [1] (setting [6]), in series [4] and in series [3] (setting [6]) were 2.8 nM, 20 nM and 23 nM, respectively.
